Experiments:
[1] = biological target: Sodium channel protein type 9 subunit alpha (Homo sapiens, UniProt Q15858); assay: (§1) Control sodium currents were measured in 0.5% DMSO.; format: cell-based
[2] = as §1; format: cell-based

Sequence of Sodium channel protein type 9 subunit alpha (Q15858 whole entry): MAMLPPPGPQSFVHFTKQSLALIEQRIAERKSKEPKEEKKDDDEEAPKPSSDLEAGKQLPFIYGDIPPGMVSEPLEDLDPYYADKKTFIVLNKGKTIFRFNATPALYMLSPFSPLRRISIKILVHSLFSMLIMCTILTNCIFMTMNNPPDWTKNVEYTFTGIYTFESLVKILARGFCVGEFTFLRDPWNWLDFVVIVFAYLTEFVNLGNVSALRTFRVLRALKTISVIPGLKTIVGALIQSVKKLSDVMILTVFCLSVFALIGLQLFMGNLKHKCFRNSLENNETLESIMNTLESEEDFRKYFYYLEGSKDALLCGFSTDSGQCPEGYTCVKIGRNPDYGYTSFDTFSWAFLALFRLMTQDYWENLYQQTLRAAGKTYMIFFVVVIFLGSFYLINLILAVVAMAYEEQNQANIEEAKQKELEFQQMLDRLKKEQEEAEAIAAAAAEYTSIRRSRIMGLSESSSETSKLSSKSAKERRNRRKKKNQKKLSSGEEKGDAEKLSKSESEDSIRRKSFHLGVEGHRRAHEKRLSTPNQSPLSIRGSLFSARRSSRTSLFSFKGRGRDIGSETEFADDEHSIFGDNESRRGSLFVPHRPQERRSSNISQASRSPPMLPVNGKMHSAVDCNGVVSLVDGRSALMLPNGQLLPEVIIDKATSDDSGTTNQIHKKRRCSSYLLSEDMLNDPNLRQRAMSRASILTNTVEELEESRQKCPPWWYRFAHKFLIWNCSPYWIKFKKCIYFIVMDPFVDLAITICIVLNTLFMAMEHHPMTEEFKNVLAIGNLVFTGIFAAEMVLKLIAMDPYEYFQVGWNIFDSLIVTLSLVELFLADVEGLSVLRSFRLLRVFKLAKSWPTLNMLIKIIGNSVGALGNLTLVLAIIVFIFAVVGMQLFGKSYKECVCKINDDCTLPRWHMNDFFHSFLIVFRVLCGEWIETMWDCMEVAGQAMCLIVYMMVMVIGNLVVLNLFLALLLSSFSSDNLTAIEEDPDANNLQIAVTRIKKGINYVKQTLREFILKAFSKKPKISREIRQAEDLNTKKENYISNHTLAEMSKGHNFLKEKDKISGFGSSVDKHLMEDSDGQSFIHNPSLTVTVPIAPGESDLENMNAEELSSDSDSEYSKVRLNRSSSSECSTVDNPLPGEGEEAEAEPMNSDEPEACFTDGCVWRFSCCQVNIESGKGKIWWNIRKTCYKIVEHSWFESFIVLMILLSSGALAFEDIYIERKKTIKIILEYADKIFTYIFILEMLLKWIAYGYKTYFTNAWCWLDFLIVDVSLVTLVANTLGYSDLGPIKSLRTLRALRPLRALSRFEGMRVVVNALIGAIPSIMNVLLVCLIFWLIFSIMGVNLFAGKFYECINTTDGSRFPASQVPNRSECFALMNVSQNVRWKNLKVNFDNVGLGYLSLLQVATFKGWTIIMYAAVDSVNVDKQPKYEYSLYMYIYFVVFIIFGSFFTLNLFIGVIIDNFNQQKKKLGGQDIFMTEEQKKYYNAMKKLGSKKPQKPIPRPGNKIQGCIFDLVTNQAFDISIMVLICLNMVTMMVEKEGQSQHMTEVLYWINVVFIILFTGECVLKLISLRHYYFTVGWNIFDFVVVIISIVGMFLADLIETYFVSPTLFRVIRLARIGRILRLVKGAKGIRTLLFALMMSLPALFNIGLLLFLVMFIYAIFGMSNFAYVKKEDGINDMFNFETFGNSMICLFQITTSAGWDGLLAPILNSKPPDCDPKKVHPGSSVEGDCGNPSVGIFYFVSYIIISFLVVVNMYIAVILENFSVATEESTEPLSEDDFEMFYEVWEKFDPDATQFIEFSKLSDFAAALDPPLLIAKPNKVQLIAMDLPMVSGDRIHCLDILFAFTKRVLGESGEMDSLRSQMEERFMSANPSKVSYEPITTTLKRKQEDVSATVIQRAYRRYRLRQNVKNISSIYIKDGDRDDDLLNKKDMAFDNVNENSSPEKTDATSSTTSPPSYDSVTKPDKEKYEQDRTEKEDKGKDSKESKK

IC50 [2]	SMILES	IC50 [1]
	O=C(NS(=O)(=O)N1CCC1)c1cc(C2CC2)c(OCC2CC3CCC(C2)N3C(c2ccccc2)c2ccccc2)cc1F (configuration not stated)	5.4 nM
169 nM	CS(=O)(=O)NC(=O)c1cc(C2CC2)c(OCC2CCN(Cc3ccc(Cl)c(C(F)(F)F)c3)CC2)cc1F	

Source: ChEMBL document CHEMBL5725519, “Substituted benzamides and methods of use thereof” (2017)
